Biological target: Substance-P receptor (Homo sapiens, UniProt P25103)
Experiment: In vitro binding affinity against substance P (NK-1) receptor in human IM-9 cell using [125I]BH-SP
Format: cell-based

Substance-P receptor, sequence (P25103 whole entry): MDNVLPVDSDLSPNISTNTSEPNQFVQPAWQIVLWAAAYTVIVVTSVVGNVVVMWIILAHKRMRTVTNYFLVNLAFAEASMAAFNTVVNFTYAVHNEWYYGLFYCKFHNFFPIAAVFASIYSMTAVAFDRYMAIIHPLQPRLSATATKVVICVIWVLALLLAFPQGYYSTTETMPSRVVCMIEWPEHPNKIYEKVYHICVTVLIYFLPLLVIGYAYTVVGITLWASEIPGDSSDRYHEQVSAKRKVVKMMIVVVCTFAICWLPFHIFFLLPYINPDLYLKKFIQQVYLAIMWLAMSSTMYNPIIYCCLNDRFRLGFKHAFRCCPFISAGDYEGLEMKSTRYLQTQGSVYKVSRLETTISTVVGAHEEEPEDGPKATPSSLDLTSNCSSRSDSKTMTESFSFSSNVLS

| Ki | SMILES |
| --- | --- |
| 2 nM | COc1ccccc1[C@@H]1CC[C@@]2(CCCN[C@H]2c2ccccc2)NC1 |
| > 10000 nM | COc1ccccc1[C@@H]1CC[C@@]2(CCCN[C@H]2c2ccccc2)N1 |

Reference: ChEMBL document CHEMBL1127735, “Importance of parallel vectors and "hydrophobic collapse" of the aligned aromatic rings: discovery of a potent substance P antagonist” (J Med Chem, 1994)
